Patent US20230017045A1, “PYRIDINE AND PYRIMIDINE CARBOXYLATE HERBICIDES AND METHODS OF USE THEREOF” (Dow AgroSciences LLC, priority 2017, published 2023)

Test system: test plant species
Assay: Post-emergent herbicidal activity test (greenhouse, foliar spray, visual growth reduction)
Format: in vivo
Conditions: post-emergence, 336 h, ECHCG: barnyardgrass (Echinochloa crus-galli), 140 g ai/ha, 14 days after application, read-out: Visual Growth Reduction (%) 14 Days After Application, ECHCG
Outline: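 Greenhouse plants at first–second true leaf stage sprayed overhead at 187 L/ha with compound in acetone/water/isopropanol/DMSO/crop oil/X-77 carrier; controls received solvent blank. Injury rated visually after 14 d on a 0–100% scale versus untreated and control plants, converted to growth reduction.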

Row | Compound | pest or weed control at 140 g/ha [%]
1 | COC(=O)c1nc(-c2cc3c(cc2OC)OC(F)(F)O3)ccc1Cl [F353, Methyl 3-chloro-6-(2,2-difluoro-6-methoxybenzo[d][1,3]dioxol-5-yl)picolinate] | 0 to 29
2 | COC(=O)c1nc(-c2ccc(C(F)(F)F)c(N)c2)ccc1Cl [F218, methyl 6-(3-amino-4-(trifluoromethyl)phenyl)-3-chloropicolinate] | 0 to 29
3 | CCCCOC(=O)c1nc(-c2ccc(Br)c(OC)c2F)ccc1Cl [F283, Butyl 6-(4-bromo-2-fluoro-3-methoxyphenyl)-3-chloropicolinate] | 0 to 29

Same assay, conditions: post-emergence, 336 h, IPOHE: ivy-leaf morning glory (Ipomoea hederacea), 140 g ai/ha, 14 days after application, read-out: Visual Growth Reduction (%) 14 Days After Application, IPOHE

Row | Compound | pest or weed control at 140 g/ha [%]
4 | COC(=O)c1nc(-c2cc3c(cc2OC)OC(F)(F)O3)ccc1Cl [F353, Methyl 3-chloro-6-(2,2-difluoro-6-methoxybenzo[d][1,3]dioxol-5-yl)picolinate] | 95 to 100
5 | COC(=O)c1nc(-c2ccc(C(F)(F)F)c(N)c2)ccc1Cl [F218, methyl 6-(3-amino-4-(trifluoromethyl)phenyl)-3-chloropicolinate] | 0 to 29
6 | CCCCOC(=O)c1nc(-c2ccc(Br)c(OC)c2F)ccc1Cl [F283, Butyl 6-(4-bromo-2-fluoro-3-methoxyphenyl)-3-chloropicolinate] | 0 to 29

Same assay, conditions: post-emergence, 336 h, KCHSC: kochia (Bassia scoparia), 140 g ai/ha, 14 days after application, read-out: Visual Growth Reduction (%) 14 Days After Application, KCHSC

Row | Compound | pest or weed control at 140 g/ha [%]
7 | COC(=O)c1nc(-c2cc3c(cc2OC)OC(F)(F)O3)ccc1Cl [F353, Methyl 3-chloro-6-(2,2-difluoro-6-methoxybenzo[d][1,3]dioxol-5-yl)picolinate] | 0 to 29
8 | COC(=O)c1nc(-c2ccc(C(F)(F)F)c(N)c2)ccc1Cl [F218, methyl 6-(3-amino-4-(trifluoromethyl)phenyl)-3-chloropicolinate] | 0 to 29
9 | CCCCOC(=O)c1nc(-c2ccc(Br)c(OC)c2F)ccc1Cl [F283, Butyl 6-(4-bromo-2-fluoro-3-methoxyphenyl)-3-chloropicolinate] | 75 to 84

Same assay, conditions: post-emergence, 336 h, ORYSA: rice (Oryza sativa), 140 g ai/ha, 14 days after application, read-out: Visual Growth Reduction (%) 14 Days After Application, ORYSA

Row | Compound | pest or weed control at 140 g/ha [%]
10 | COC(=O)c1nc(-c2cc3c(cc2OC)OC(F)(F)O3)ccc1Cl [F353, Methyl 3-chloro-6-(2,2-difluoro-6-methoxybenzo[d][1,3]dioxol-5-yl)picolinate] | 0 to 29
11 | COC(=O)c1nc(-c2ccc(C(F)(F)F)c(N)c2)ccc1Cl [F218, methyl 6-(3-amino-4-(trifluoromethyl)phenyl)-3-chloropicolinate] | 0 to 29
12 | CCCCOC(=O)c1nc(-c2ccc(Br)c(OC)c2F)ccc1Cl [F283, Butyl 6-(4-bromo-2-fluoro-3-methoxyphenyl)-3-chloropicolinate] | 0 to 29

Same assay, conditions: post-emergence, 336 h, SETFA: giant foxtail (Setaria faberi), 140 g ai/ha, 14 days after application, read-out: Visual Growth Reduction (%) 14 Days After Application, SETFA

Row | Compound | pest or weed control at 140 g/ha [%]
13 | COC(=O)c1nc(-c2cc3c(cc2OC)OC(F)(F)O3)ccc1Cl [F353, Methyl 3-chloro-6-(2,2-difluoro-6-methoxybenzo[d][1,3]dioxol-5-yl)picolinate] | 0 to 29
14 | COC(=O)c1nc(-c2ccc(C(F)(F)F)c(N)c2)ccc1Cl [F218, methyl 6-(3-amino-4-(trifluoromethyl)phenyl)-3-chloropicolinate] | 0 to 29
15 | CCCCOC(=O)c1nc(-c2ccc(Br)c(OC)c2F)ccc1Cl [F283, Butyl 6-(4-bromo-2-fluoro-3-methoxyphenyl)-3-chloropicolinate] | 0 to 29

Same assay, conditions: post-emergence, 336 h, SORVU: grain sorghum (Sorghum vulgare), 140 g ai/ha, 14 days after application, read-out: Visual Growth Reduction (%) 14 Days After Application, SORVU

Row | Compound | pest or weed control at 140 g/ha [%]
16 | COC(=O)c1nc(-c2cc3c(cc2OC)OC(F)(F)O3)ccc1Cl [F353, Methyl 3-chloro-6-(2,2-difluoro-6-methoxybenzo[d][1,3]dioxol-5-yl)picolinate] | 45 to 59
17 | COC(=O)c1nc(-c2ccc(C(F)(F)F)c(N)c2)ccc1Cl [F218, methyl 6-(3-amino-4-(trifluoromethyl)phenyl)-3-chloropicolinate] | 0 to 29
18 | CCCCOC(=O)c1nc(-c2ccc(Br)c(OC)c2F)ccc1Cl [F283, Butyl 6-(4-bromo-2-fluoro-3-methoxyphenyl)-3-chloropicolinate] | 0 to 29

Same assay, conditions: post-emergence, 336 h, STEME: common chickweed (Stellaria media), 140 g ai/ha, 14 days after application, read-out: Visual Growth Reduction (%) 14 Days After Application, STEME

Row | Compound | pest or weed control at 140 g/ha [%]
19 | COC(=O)c1nc(-c2cc3c(cc2OC)OC(F)(F)O3)ccc1Cl [F353, Methyl 3-chloro-6-(2,2-difluoro-6-methoxybenzo[d][1,3]dioxol-5-yl)picolinate] | 0 to 29
20 | COC(=O)c1nc(-c2ccc(C(F)(F)F)c(N)c2)ccc1Cl [F218, methyl 6-(3-amino-4-(trifluoromethyl)phenyl)-3-chloropicolinate] | 0 to 29
21 | CCCCOC(=O)c1nc(-c2ccc(Br)c(OC)c2F)ccc1Cl [F283, Butyl 6-(4-bromo-2-fluoro-3-methoxyphenyl)-3-chloropicolinate] | 0 to 29

Same assay, conditions: post-emergence, 336 h, TRZAS: wheat, spring (Triticum aestivum), 140 g ai/ha, 14 days after application, read-out: Visual Growth Reduction (%) 14 Days After Application, TRZAS

Row | Compound | pest or weed control at 140 g/ha [%]
22 | COC(=O)c1nc(-c2cc3c(cc2OC)OC(F)(F)O3)ccc1Cl [F353, Methyl 3-chloro-6-(2,2-difluoro-6-methoxybenzo[d][1,3]dioxol-5-yl)picolinate] | 0 to 29
23 | COC(=O)c1nc(-c2ccc(C(F)(F)F)c(N)c2)ccc1Cl [F218, methyl 6-(3-amino-4-(trifluoromethyl)phenyl)-3-chloropicolinate] | 0 to 29
24 | CCCCOC(=O)c1nc(-c2ccc(Br)c(OC)c2F)ccc1Cl [F283, Butyl 6-(4-bromo-2-fluoro-3-methoxyphenyl)-3-chloropicolinate] | 0 to 29

Same assay, conditions: post-emergence, 336 h, blackgrass (Alopecurus myosuroides), 14 Days After Application, 140 g ai/ha, read-out: Visual Growth Reduction (%) ALOMY

Row | Compound | pest or weed control at 140 g/ha [%]
25 | COC(=O)c1nc(-c2cc3c(cc2OC)OC(F)(F)O3)ccc1Cl [F353, Methyl 3-chloro-6-(2,2-difluoro-6-methoxybenzo[d][1,3]dioxol-5-yl)picolinate] | 0 to 29
26 | COC(=O)c1nc(-c2ccc(C(F)(F)F)c(N)c2)ccc1Cl [F218, methyl 6-(3-amino-4-(trifluoromethyl)phenyl)-3-chloropicolinate] | 0 to 29
27 | CCCCOC(=O)c1nc(-c2ccc(Br)c(OC)c2F)ccc1Cl [F283, Butyl 6-(4-bromo-2-fluoro-3-methoxyphenyl)-3-chloropicolinate] | 0 to 29

Same assay, conditions: post-emergence, 336 h, canada thistle (Cirsium arvense), 14 Days After Application, 140 g ai/ha, read-out: Visual Growth Reduction (%) CIRAR

Row | Compound | pest or weed control at 140 g/ha [%]
28 | COC(=O)c1nc(-c2cc3c(cc2OC)OC(F)(F)O3)ccc1Cl [F353, Methyl 3-chloro-6-(2,2-difluoro-6-methoxybenzo[d][1,3]dioxol-5-yl)picolinate] | 0 to 29
29 | COC(=O)c1nc(-c2ccc(C(F)(F)F)c(N)c2)ccc1Cl [F218, methyl 6-(3-amino-4-(trifluoromethyl)phenyl)-3-chloropicolinate] | 30 to 44
30 | CCCCOC(=O)c1nc(-c2ccc(Br)c(OC)c2F)ccc1Cl [F283, Butyl 6-(4-bromo-2-fluoro-3-methoxyphenyl)-3-chloropicolinate] | 85 to 94

Same assay, conditions: post-emergence, 336 h, crabgrass (Digitaria sanguinalis), 14 Days After Application, 140 g ai/ha, read-out: Visual Growth Reduction (%) DIGSA

Row | Compound | pest or weed control at 140 g/ha [%]
31 | COC(=O)c1nc(-c2cc3c(cc2OC)OC(F)(F)O3)ccc1Cl [F353, Methyl 3-chloro-6-(2,2-difluoro-6-methoxybenzo[d][1,3]dioxol-5-yl)picolinate] | 0 to 29
32 | COC(=O)c1nc(-c2ccc(C(F)(F)F)c(N)c2)ccc1Cl [F218, methyl 6-(3-amino-4-(trifluoromethyl)phenyl)-3-chloropicolinate] | 0 to 29
33 | CCCCOC(=O)c1nc(-c2ccc(Br)c(OC)c2F)ccc1Cl [F283, Butyl 6-(4-bromo-2-fluoro-3-methoxyphenyl)-3-chloropicolinate] | 0 to 29

Same assay, conditions: post-emergence, 336 h, lambsquarters (Chenopodium album), 14 Days After Application, 140 g ai/ha, read-out: Visual Growth Reduction (%) CHEAL

Row | Compound | pest or weed control at 140 g/ha [%]
34 | COC(=O)c1nc(-c2cc3c(cc2OC)OC(F)(F)O3)ccc1Cl [F353, Methyl 3-chloro-6-(2,2-difluoro-6-methoxybenzo[d][1,3]dioxol-5-yl)picolinate] | 45 to 59
35 | COC(=O)c1nc(-c2ccc(C(F)(F)F)c(N)c2)ccc1Cl [F218, methyl 6-(3-amino-4-(trifluoromethyl)phenyl)-3-chloropicolinate] | 60 to 74
36 | CCCCOC(=O)c1nc(-c2ccc(Br)c(OC)c2F)ccc1Cl [F283, Butyl 6-(4-bromo-2-fluoro-3-methoxyphenyl)-3-chloropicolinate] | 85 to 94

Same assay, conditions: post-emergence, 336 h, redroot pigweed (Amaranthus retroflexus), 14 Days After Application, 140 g ai/ha, read-out: Visual Growth Reduction (%) AMARE

Row | Compound | pest or weed control at 140 g/ha [%]
37 | COC(=O)c1nc(-c2cc3c(cc2OC)OC(F)(F)O3)ccc1Cl [F353, Methyl 3-chloro-6-(2,2-difluoro-6-methoxybenzo[d][1,3]dioxol-5-yl)picolinate] | 0 to 29
38 | COC(=O)c1nc(-c2ccc(C(F)(F)F)c(N)c2)ccc1Cl [F218, methyl 6-(3-amino-4-(trifluoromethyl)phenyl)-3-chloropicolinate] | 0 to 29
39 | CCCCOC(=O)c1nc(-c2ccc(Br)c(OC)c2F)ccc1Cl [F283, Butyl 6-(4-bromo-2-fluoro-3-methoxyphenyl)-3-chloropicolinate] | 30 to 44

Same assay, conditions: post-emergence, 336 h, wild oat (Avena fatua), 14 Days After Application, 140 g ai/ha, read-out: Visual Growth Reduction (%) AVEFA

Row | Compound | pest or weed control at 140 g/ha [%]
40 | COC(=O)c1nc(-c2cc3c(cc2OC)OC(F)(F)O3)ccc1Cl [F353, Methyl 3-chloro-6-(2,2-difluoro-6-methoxybenzo[d][1,3]dioxol-5-yl)picolinate] | 0 to 29
41 | COC(=O)c1nc(-c2ccc(C(F)(F)F)c(N)c2)ccc1Cl [F218, methyl 6-(3-amino-4-(trifluoromethyl)phenyl)-3-chloropicolinate] | 0 to 29
42 | CCCCOC(=O)c1nc(-c2ccc(Br)c(OC)c2F)ccc1Cl [F283, Butyl 6-(4-bromo-2-fluoro-3-methoxyphenyl)-3-chloropicolinate] | 0 to 29

Same assay, conditions: post-emergence, 336 h, yellow nutsedge (Cyperus esculentus), 14 Days After Application, 140 g ai/ha, read-out: Visual Growth Reduction (%) CYPES

Row | Compound | pest or weed control at 140 g/ha [%]
43 | COC(=O)c1nc(-c2cc3c(cc2OC)OC(F)(F)O3)ccc1Cl [F353, Methyl 3-chloro-6-(2,2-difluoro-6-methoxybenzo[d][1,3]dioxol-5-yl)picolinate] | 0 to 29
44 | COC(=O)c1nc(-c2ccc(C(F)(F)F)c(N)c2)ccc1Cl [F218, methyl 6-(3-amino-4-(trifluoromethyl)phenyl)-3-chloropicolinate] | 0 to 29
45 | CCCCOC(=O)c1nc(-c2ccc(Br)c(OC)c2F)ccc1Cl [F283, Butyl 6-(4-bromo-2-fluoro-3-methoxyphenyl)-3-chloropicolinate] | 30 to 44
